Measurements reported in patent US8188135B2, “Compounds as cannabinoid receptor ligands” (priority 2008, dated 2012).
Read-outs that look alike come from different tables or passages of the source.

Assays:
human CB2 receptors = biological target: T1, human CB2 receptors (Homo sapiens, UniProt P34972); experiment: human CB2 radioligand binding assay ([3H]CP 55,940 competition); details: HEK293 membranes, 0.5 nM [3H]CP 55,940
T1 construct: expressed in transfected cells; host or cells: HEK293
Description: (§1) The CB1 and CB2 radioligand binding assays described herein are utilized to ascertain the affinity of compounds of the present application for binding to CB2 relative to CB1 receptors.
HEK293 cells stably expressing human CB2 receptors were grown until a confluent monolayer was formed. Briefly, the cells were harvested and homogenized in TE buffer (50 mM Tris-HCl, 1 mM MgCl2, and 1 mM EDTA) using a polytron for 2×10 second bursts in the presence of protease inhibitors, followed by centrifugation at 45,000×g for 20 minutes. The final membrane pellet was re-homogenized in storage buffer (50 mM Tris-HCl, 1 mM MgCl2, and 1 mM EDTA and 10% sucrose) and frozen at −78° C. until used. Saturation binding reactions were initiated by the addition of membrane preparation (protein concentration of 5 μg/well for human CB2) into wells of a deep well plate containing [^3H]CP 55,940 (120 Ci/mmol, a nonselective CB agonist commercially available from Tocris) in assay buffer (50 mM Tris, 2.5 mM EDTA, 5 mM MgCl2, and 0.5 mg/mL fatty acid free BSA, pH 7.4). After 90 min incubation at 30° C., binding reaction was terminated by the addition of 300 μL/well of cold assay buffer followed by rapid vacuum filtration through a UniFilter-96 GF/C filter plates (pre-soaked in 1 mg/mL BSA for 2 hours). The bound activity was counted in a TopCount using Microscint-20. Saturation experiments were conducted with twelve concentrations of [^3H]CP 55,940 ranging from 0.01 to 8 nM. Competition experiments were conducted with 0.5 nM [^3H]CP 55,940 and five concentrations (0.01 nM to 10 μM) of displacing ligands. The addition of 10 μM unlabeled CP 55,940 (Tocris, Ellisville, Mo.) was used to assess nonspecific binding.

rat CB2 = biological target: T2, rat CB2 (Rattus norvegicus, UniProt Q9QZN9); experiment: rat CB2 radioligand binding assay ([3H]CP 55,940 competition); set-up: expressed in transfected cells; host or cells: HEK293; details: HEK293 membranes, 0.5 nM [3H]CP 55,940
T2 sequence (Q9QZN9 1-360): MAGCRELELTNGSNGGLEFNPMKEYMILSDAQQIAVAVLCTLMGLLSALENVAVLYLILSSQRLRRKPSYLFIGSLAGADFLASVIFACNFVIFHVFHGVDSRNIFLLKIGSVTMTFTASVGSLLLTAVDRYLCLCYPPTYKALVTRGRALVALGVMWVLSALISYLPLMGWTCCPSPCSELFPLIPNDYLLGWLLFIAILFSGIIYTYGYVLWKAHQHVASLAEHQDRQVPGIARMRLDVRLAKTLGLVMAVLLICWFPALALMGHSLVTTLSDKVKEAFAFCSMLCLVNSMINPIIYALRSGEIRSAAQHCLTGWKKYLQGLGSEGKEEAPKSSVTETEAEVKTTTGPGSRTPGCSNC
Description: as §1
HEK293 cells stably expressing rat CB2 receptors were grown until a confluent monolayer was formed. Briefly, the cells were harvested and homogenized in TE buffer (50 mM Tris-HCl, 1 mM MgCl2, and 1 mM EDTA) using a polytron for 2×10 second bursts in the presence of protease inhibitors, followed by centrifugation at 45,000×g for 20 minutes. The final membrane pellet was re-homogenized in storage buffer (50 mM Tris-HCl, 1 mM MgCl2, and 1 mM EDTA and 10% sucrose) and frozen at −78° C. until used. Saturation binding reactions were initiated by the addition of membrane preparation (protein concentration of 20 μg/well for rat CB2) into wells of a deep well plate containing [^3H]CP 55,940 (120 Ci/mmol, a nonselective CB agonist commercially available from Tocris) in assay buffer (50 mM Tris, 2.5 mM EDTA, 5 mM MgCl2, and 0.5 mg/mL fatty acid free BSA, pH 7.4). After 45 min incubation at 30° C., binding reaction was terminated by the addition of […] of cold assay buffer followed by rapid vacuum filtration through a UniFilter-96 GF/C filter plates (pre-soaked in 1 mg/mL BSA for 2 hours). The bound activity was counted in a TopCount using Microscint-20. Saturation experiments were conducted with twelve concentrations of [^3H]CP 55,940 ranging from 0.01 to 8 nM. Competition experiments were conducted with 0.5 nM [^3H]CP 55,940 and five concentrations of displacing ligands selected from the range of 0.01 nM to 10 μM. The addition of 10 μM unlabeled CP 55,940 (Tocris, Ellisville, Mo.) was used to assess nonspecific binding.

T1 sequence (P34972 whole entry): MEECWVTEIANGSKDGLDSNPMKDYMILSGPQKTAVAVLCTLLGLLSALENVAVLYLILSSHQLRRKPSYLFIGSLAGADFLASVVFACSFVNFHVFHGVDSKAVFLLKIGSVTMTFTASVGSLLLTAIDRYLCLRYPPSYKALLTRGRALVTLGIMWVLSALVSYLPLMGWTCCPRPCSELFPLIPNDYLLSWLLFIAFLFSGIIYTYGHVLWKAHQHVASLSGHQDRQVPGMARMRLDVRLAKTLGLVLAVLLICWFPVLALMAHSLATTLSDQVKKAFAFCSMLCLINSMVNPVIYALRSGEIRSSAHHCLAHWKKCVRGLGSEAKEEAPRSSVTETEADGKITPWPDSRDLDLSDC

SMILES	Ki (human CB2 receptors; human CB2 (Ki, nM))	Ki (rat CB2; rat CB2 (Ki, nM))	Ki (human CB2 receptors; read-out: human CB2 (Ki))	Ki (rat CB2; read-out: rat CB2 (Ki))
CCC(O)(CC)COc1ccc(C(F)(F)F)cc1C(=O)/N=c1\cc(C(C)(C)C)n(C)n1C[C@H]1CCCO1 [Example 117, N-{(3E)-5-tert-butyl-1-methyl-2-[(2R)-tetrahydrofuran-2-ylmethyl]-1,2-dihydro-3H-pyrazol-3-ylidene}-2-(2-ethyl-2-hydroxybutoxy)-5-(trifluoromethyl)benzamide]	83 nM	69 nM		
Cn1c(C(C)(C)C)c/c(=N\C(=O)c2cc(C(F)(F)F)ccc2OCc2ccccn2)n1C[C@H]1CCCO1 [Example 38, N-{(3E)-5-tert-butyl-1-methyl-2-[(2R)-tetrahydrofuran-2-ylmethyl]-1,2-dihydro-3H-pyrazol-3-ylidene}-2-(pyridin-2-ylmethoxy)-5-(trifluoromethyl)benzamide]		26 nM	> 1000 nM	
COC(=O)c1ccc(OCC(C)(C)O)c(C(=O)/N=c2\cc(C(C)(C)C)n(C)n2C[C@H]2CCCO2)c1 [Example 132, methyl 3-[({(3E)-tert-butyl-1-methyl-2-[(2R)-tetrahydrofuran-2-ylmethyl]-1,2-dihydro-3H-pyrazol-3-ylidene}amino)carbonyl]-4-(2-hydroxy-2-methylpropoxy)benzoate]			127 nM	51 nM
Cn1c(C(C)(C)C)c/c(=N\C(=O)c2cc(C(F)(F)F)ccc2OCC(C)(C)O)n1CCCC(F)(F)F [Example 135, N-[(3E)-5-tert-butyl-1-methyl-2-(4,4,4-trifluorobutyl)-1,2-dihydro-3H-pyrazol-3-ylidene]-2-(2-hydroxy-2-methylpropoxy)-5-(trifluoromethyl)benzamide]	23 nM	5.5 nM		
C[C@@H](O)[C@@H](C)Oc1ccc(C(F)(F)F)cc1C(=O)/N=c1\cc(C(C)(C)C)n(C)n1C[C@H]1CCCO1 [Example 104, N-{(3E)-5-tert-butyl-1-methyl-2-[(2R)-tetrahydrofuran-2-ylmethyl]-1,2-dihydro-3 H-pyrazol-3-ylidene}-2-{[(1R,2R)-2-hydroxy-1-methylpropyl]oxy}-5-(trifluoromethyl)benzamide]			> 1000 nM	317 nM
Cn1c(C(C)(C)C)c/c(=N\C(=O)c2cc(C(F)(F)F)ccc2OCC(C)(C)O)n1CC1CCCC1 [Example 106, N-[(3E)-5-tert-butyl-2-(cyclopentylmethyl)-1-methyl-1,2-dihydro-3H-pyrazol-3-ylidene]-2-(2-hydroxy-2-methylpropoxy)-5-(trifluoromethyl)benzamide]	6.6 nM	8.7 nM		
CCCCn1/c(=N/C(=O)c2cc(C(F)(F)F)ccc2SCC(C)(C)O)cc(C(C)(C)C)n1C [Example 137]	55 nM	26 nM		
CCCCn1/c(=N/C(=O)c2cc([N+](=O)[O-])ccc2OCC(C)(C)O)cc(C(C)(C)C)n1C [Example 138, N-[(3E)-2-butyl-5-tert-butyl-1-methyl-1,2-dihydro-3H-pyrazol-3-ylidene]-2-(2-hydroxy-2-methylpropoxy)-5-nitrobenzamide]	1.6 nM	19 nM		
CSCCCOc1ccc(C(F)(F)F)cc1C(=O)/N=c1\cc(C(C)(C)C)n(C)n1CC1CCC1 [Example 133, N-[(3E)-5-tert-butyl-2-(cyclobutylmethyl)-1-methyl-1,2-dihydro-3H-pyrazol-3-ylidene]-2-[3-(methylthio)propoxy]-5-(trifluoromethyl)benzamide]	13 nM	15 nM		
Cn1c(C(C)(C)C)c/c(=N\C(=O)c2cc(C(F)(F)F)ccc2OCCCS(C)(=O)=O)n1CC1CCC1 [Example 134, N-[(3E)-5-tert-butyl-2-(cyclobutylmethyl)-1-methyl-1,2-dihydro-3H-pyrazol-3-ylidene]-2-[3-(methylsulfonyl)propoxy]-5-(trifluoromethyl)benzamide]	22 nM	40 nM		
CC1=NOC(Cn2/c(=N/C(=O)c3cc(C(F)(F)F)ccc3OC[C@@H]3CCCO3)cc(C(C)(C)C)n2C)C1 (stereo partly drawn) [Example 31, N-{(3E)-5-tert-butyl-1-methyl-2-[(3-methyl-4,5-dihydroisoxazol-5-yl)methyl]-1,2-dihydro-3H-pyrazol-3-ylidene}-2-[(2S)-tetrahydrofuran-2-ylmethoxy]-5-(trifluoromethyl)benzamide]	239 nM	63 nM		
Cn1c(C(C)(C)C)c/c(=N\C(=O)c2cc(C(F)(F)F)ccc2OCC(C)(C)CO)n1C[C@H]1CCCO1 [Example 116, N-{(3E)-5-tert-butyl-1-methyl-2-[(2R)-tetrahydrofuran-2-ylmethyl]-1,2-dihydro-3H-pyrazol-3-ylidene}-2-(3-hydroxy-2,2-dimethylpropoxy)-5-(trifluoromethyl)benzamide]			> 1000 nM	199 nM
Cn1c(C(C)(C)C)c/c(=N\C(=O)c2cc(C(F)(F)F)ccc2OCCN2CCNC2=O)n1C[C@H]1CCCO1 [Example 48, N-{(3E)-5-tert-butyl-1-methyl-2-[(2R)-tetrahydrofuran-2-ylmethyl]-1,2-dihydro-3H-pyrazol-3-ylidene}-2-[2-(2-oxoimidazolidin-1-yl)ethoxy]-5-(trifluoromethyl)benzamide]		53 nM	251 nM	
CSC(C)(C)COc1ccc(C(F)(F)F)cc1C(=O)/N=c1\cc(C(C)(C)C)n(C)n1C[C@H]1CCCO1 [Example 64, N-{(3E)-5-tert-butyl-1-methyl-2-[(2R)-tetrahydrofuran-2-ylmethyl]-1,2-dihydro-3H-pyrazol-3-ylidene}-2-[2-methyl-2-(methylthio)propoxy]-5-(trifluoromethyl)benzamide]			328 nM	114 nM
CC(C)[C@H](O)COc1ccc(C(F)(F)F)cc1C(=O)/N=c1\cc(C(C)(C)C)n(C)n1C[C@H]1CCCO1 [Example 111, N-{(3E)-5-tert-butyl-1-methyl-2-[(2R)-tetrahydrofuran-2-ylmethyl]-1,2-dihydro-3H-pyrazol-3-ylidene}-2-{[(2S)-2-hydroxy-3-methylbutyl]oxy}-5-(trifluoromethyl)benzamide]	1.8 nM	1 nM		
CCCCN1CC(C)(C)S/C1=N\C(=O)c1cc(C(F)(F)F)ccc1OCC(C)(C)O [Example 94, N-[(2Z)-3-butyl-5,5-dimethyl-1,3-thiazolidin-2-ylidene]-2-(2-hydroxy-2-methylpropoxy)-5-(trifluoromethyl)benzamide]	3.9 nM	5 nM		
C=C[C@H](O)COc1ccc(C(F)(F)F)cc1C(=O)/N=c1\cc(C(C)(C)C)n(C)n1C[C@H]1CCCO1 [Example 107, N-{(3E)-5-tert-butyl-1-methyl-2-[(2R)-tetrahydrofuran-2-ylmethyl]-1,2-dihydro-3 H-pyrazol-3-ylidene}-2-{[(2S)-2-hydroxybut-3-enyl]oxy}-5-(trifluoromethyl)benzamide]	2.4 nM	2.9 nM		
